Reference: paper PMC8309046 (Pharmaceutics, 2021)
Structures can show the parent of a compound that is named as a salt. Where two headings read alike, the source gives them in different places.

Legend:
PptT [1] = target: T1, PptT (Mycobacterium tuberculosis, UniProt O33336); test: LOPAC1280 single-point BpsA (indigoidine) end-point screen for PptT inhibitors; type: biochemical; details: for % Activity in PptT Screen / activity at 20 µM: single concentration (20 µM per Figure S4), 0.4 µM PptT, 0.6 µM apo-BpsA, 10 µM CoA, A590 relative to no-inhibitor positive controls
T1 sequence (O33336 whole entry): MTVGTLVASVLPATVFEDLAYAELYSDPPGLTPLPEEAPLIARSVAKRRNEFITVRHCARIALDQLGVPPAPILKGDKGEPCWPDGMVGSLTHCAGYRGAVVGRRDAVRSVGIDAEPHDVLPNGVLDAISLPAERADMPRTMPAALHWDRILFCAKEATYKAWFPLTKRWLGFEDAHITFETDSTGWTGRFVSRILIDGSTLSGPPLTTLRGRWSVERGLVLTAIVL

holo-BpsA = target: T2, holo-BpsA (Streptomyces lavendulae, UniProt Q1MWN4); test: Counter-screen against pre-activated holo-BpsA (indigoidine synthesis); type: biochemical; details: for Inhibition of holo-BpsA: re-screen at higher concentration of 40 µM; for Inhibition of indigoidine synthesis by holo-BpsA in LOPAC1280 counter-screen: 0.6 µM holo-BpsA, no PPTase, screening concentration; for inhibition at 40 µM: read-out: Inhibition of holo-BpsA
T2 construct: made in house; host or cells: E. coli BL21(DE3) ΔentD
T2 sequence (Q1MWN4 1-1282): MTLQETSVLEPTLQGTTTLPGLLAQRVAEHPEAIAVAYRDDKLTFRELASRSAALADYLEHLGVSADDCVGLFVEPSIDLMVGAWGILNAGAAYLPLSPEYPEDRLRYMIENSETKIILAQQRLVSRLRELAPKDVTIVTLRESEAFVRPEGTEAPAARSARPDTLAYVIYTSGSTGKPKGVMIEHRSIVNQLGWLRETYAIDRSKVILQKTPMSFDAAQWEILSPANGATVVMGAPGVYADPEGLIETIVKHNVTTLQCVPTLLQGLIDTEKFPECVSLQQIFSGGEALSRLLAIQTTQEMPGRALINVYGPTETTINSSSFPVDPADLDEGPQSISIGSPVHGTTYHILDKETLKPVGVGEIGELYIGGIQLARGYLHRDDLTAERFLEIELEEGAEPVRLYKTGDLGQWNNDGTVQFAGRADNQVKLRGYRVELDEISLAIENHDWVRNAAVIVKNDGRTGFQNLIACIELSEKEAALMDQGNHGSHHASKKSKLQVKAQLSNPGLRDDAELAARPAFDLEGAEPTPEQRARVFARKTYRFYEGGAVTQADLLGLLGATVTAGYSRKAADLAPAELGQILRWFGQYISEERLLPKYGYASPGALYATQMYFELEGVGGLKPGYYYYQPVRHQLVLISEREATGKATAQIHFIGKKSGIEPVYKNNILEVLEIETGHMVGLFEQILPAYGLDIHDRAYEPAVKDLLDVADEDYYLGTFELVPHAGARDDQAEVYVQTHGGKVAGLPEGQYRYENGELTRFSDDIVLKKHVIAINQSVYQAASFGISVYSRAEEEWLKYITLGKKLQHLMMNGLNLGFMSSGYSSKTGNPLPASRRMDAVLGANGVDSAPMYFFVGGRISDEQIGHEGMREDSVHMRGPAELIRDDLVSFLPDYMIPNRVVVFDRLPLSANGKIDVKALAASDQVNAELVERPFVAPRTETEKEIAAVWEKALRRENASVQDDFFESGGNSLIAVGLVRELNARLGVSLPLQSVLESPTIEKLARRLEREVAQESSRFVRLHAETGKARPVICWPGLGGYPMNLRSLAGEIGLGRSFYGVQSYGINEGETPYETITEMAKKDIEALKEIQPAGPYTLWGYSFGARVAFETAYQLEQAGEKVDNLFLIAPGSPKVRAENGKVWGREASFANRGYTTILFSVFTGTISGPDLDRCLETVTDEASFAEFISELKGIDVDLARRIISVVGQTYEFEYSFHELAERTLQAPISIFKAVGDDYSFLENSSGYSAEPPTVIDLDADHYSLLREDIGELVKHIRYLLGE
Description: The Sigma-Aldrich LOPAC^1280 collection was first diluted to a working stock of […] per compound. To screen the collection, 88 reactions at a time were established in columns 1–11 of a standard 96 well-plate. Each was prepared from 30 µL of reaction mix comprising 50 mM Tris-Cl (pH 8.0), 0.01% (v/v) Triton-X, 10 mM MgCl2, 5 mM ATP, 5 mM L-glutamine and 10 µM CoA. Next, a CyBio liquid handler was used to pin 2 µL of compound into columns 2–11 and 2 µL of DMSO into column 1. To screen for PptT inhibitors, 10 µL of PPTase mix comprising a freshly-prepared stock of 0.4 µM PptT and 50 mM Tris-Cl (pH 8.0) was added to wells A1–C1 and columns 2–11 (see Supplementary Figure S1). To initiate indigoidine synthesis, 10 µL of 0.6 µM apo-BpsA in 50 mM Tris-Cl (pH 8.0) was added to each well. To screen for holo-BpsA inhibitors, an equivalent screening format was established only using 0.6 µM holo-BpsA and with no PPTase mix added. Each plate was then shaken at 1000 rpm for 10 s and incubated at room temperature for 1 h. Indigoidine was then resolubilised by the addition of 200 µL DMSO and incubation at 37 °C with shaking at 200 rpm for 0.5 h. A Perkin Elmer Enspire plate reader was then used to record the absorbance readings at 590 nm. The Python package Pandas was used to process the data, which was then visualised using the Python package Seaborn.

SARS-CoV-2 protease = details: LOPAC1280 screen, FRET-based reporter; cited from earlier work
PptT [2] = target: T1, PptT; test: BpsA end-point dose-response assay of PptT inhibition (EC50); type: biochemical; details: for EC50: end-point assay, two-fold serial dilution from 40 µM, 0.4 µM PptT, 0.6 µM apo-BpsA, three independent replicates ± standard error
PptT [3] = target: T1, PptT; type: biochemical; details: kinetic assay, serial dilution 200 µM to 0.2 µM; 0.4 µM PptT, 0.6 µM apo-BpsA
PPTases = tested on: PPTases; parameters: method as in PMID 20094656, PMID 21466506, PMID 33118808; details: cited from earlier work
Sfp = tested on: Sfp; parameters: method as in PMID 24192555; details: cited from earlier work
M. tuberculosis PptT = tested on: M. tuberculosis PptT; parameters: method as in PMID 24963544; details: cited from earlier work

Row | Compound | % Activity in PptT Screen (PptT [1]) | Hit as SARS-CoV-2 protease inhibitor (SARS-CoV-2 protease) | EC50 (PptT [2]) | also measured
1 | NC(Cc1cc(O)c(O)cc1O)C(=O)O (racemic) [6-Hydroxy-DL-DOPA] | 26% | strong protease inhibitors |  | Inhibition of holo-BpsA (holo-BpsA): less than 15%
2 | O=C(O)c1cc[c]([Hg][Cl])cc1 [4-chloromercuribenzoic acid] |  |  |  | Inhibition of indigoidine synthesis by holo-BpsA in LOPAC1280 counter-screen (holo-BpsA): inhibiting indigoidine synthesis
3 | O=Nc1ccc2oc(=O)ccc2c1 [6-Nitroso-1,2-benzopyrone] | 12% | strong protease inhibitors | 8.3 ± 1.7 µM | EC50 (PptT [3]): 4.4 ± 1.2 µM; Inhibition of holo-BpsA (holo-BpsA): less than 15%; Activity in vitro against PPTases (PPTases): activity in vitro against numerous PPTases
4 | CCCCCCCCCCC/C=C\C(C)(C)/C=C\CCCC(=O)O [7,7-Dimethyl-(5z,8z)-eicosadienoic acid] | 49% |  |  | Inhibition of holo-BpsA (holo-BpsA): less than 15%
5 | Br.CCCN(CCC)C1CCc2cccc(O)c2C1 (stereo not shown) [8-hydroxy-DPAT hydrobromide] |  |  |  | Inhibitory activity on PptT in serial dilution (result in words) (PptT [2]; two-fold serial dilutions (40 µM to 0.3 µM) in PptT/apo-BpsA reaction mix): no inhibitory activity was observed
6 | O=C(O)C1=CC(=C(c2ccc(O)c(C(=O)O)c2)c2ccc(O)c(C(=O)O)c2)C=CC1=O [Aurintricarboxylic acid] |  | strong protease inhibitors | 4.8 ± 0.9 µM | activity at 20 µM (PptT [1]): 32%
7 | CC(C)(C)c1ccc(S(=O)(=O)/C=C/C#N)cc1 [Bay 11-7085] | 10% | strong protease inhibitors | 7.4 ± 0.4 µM | 
8 | CCN(CC)C(=S)SSC(=S)N(CC)CC [Disulfiram] |  | strong protease inhibitors | 6 ± 1.5 µM | activity at 20 µM (PptT [1]): 9%; inhibition at 40 µM (holo-BpsA): < 15%
9 | O=C1Nc2ccc(I)cc2/C1=C/c1cc(Br)c(O)c(Br)c1 [GW5074] | 43% |  |  | 
10 | COc1cc(/C=C(\C#N)C(=O)c2ccc(O)c(O)c2)cc(I)c1O [I-OMe-Tyrphostin AG 538] | 40% |  |  | 
11 | N=C1Sc2ccccc2C2=NCCCN12 [PD 404, 182] | 35% | strong protease inhibitors |  | 
12 | Nc1c(S(=O)(=O)O)cc(Nc2ccc(Nc3nc(Cl)nc(Nc4cccc(S(=O)(=O)O)c4)n3)c(S(=O)(=O)O)c2)c2c1C(=O)c1ccccc1C2=O [Reactive Blue 2] |  |  |  | activity at 20 µM (PptT [1]): 38%
13 | CC(=O)c1c(O)c(C)c(O)c(Cc2c(O)c3c(c(C(=O)/C=C/c4ccccc4)c2O)OC(C)(C)C=C3)c1O [Rottlerin] |  |  |  | activity at 20 µM (PptT [1]): 48%
14 | Br.CN=c1nc(-c2ccccc2)n(-c2ccccc2)s1 [SCH-202676 hydrobromide] | 0.7% |  | 5.9 ± 0.1 µM | Inhibition of holo-BpsA (holo-BpsA): noticeably inhibitory
15 | C[n+]1cc2c3c(ccc2c2ccc4cc5c(cc4c21)OCO5)OCO3 [Sanguinarine chloride] |  | strong protease inhibitors |  | activity at 20 µM (PptT [1]): 44%; inhibition at 40 µM (holo-BpsA): < 15%; Reported as inhibitor of Sfp (Sfp): inhibitor; Reported as inhibitor of M. tuberculosis PptT (M. tuberculosis PptT): inhibitor
16 | N#C/C(=C\c1ccc(O)c(O)c1)C(=O)NCCCNC(=O)/C(C#N)=C/c1ccc(O)c(O)c1 [Tyrphostin AG 537] | 35% |  | 5.9 ± 0.5 µM | 
17 | N#C/C(=C\c1ccc(O)c(O)c1)C(=O)c1ccc(O)c(O)c1 [Tyrphostin AG 538] | 24% |  | 6.4 ± 0.7 µM | 
18 | COc1ccc2c(c1)CC[C@@H]1[C@@H]2CC[C@]2(C)[C@@H](NCCCCCCN3C(=O)C=CC3=O)CC[C@@H]12 [U-73122] | 44% | strong protease inhibitors | 8.1 ± 0.5 µM | 
19 | CN(C)CC/C=C1/c2ccccc2Sc2ccc(Cl)cc21 [chlorprothixene hydrochloride] |  |  |  | Registered as inhibitor of PptT in primary screen (result in words) (PptT [1]; LOPAC1280 primary screen): did not register as an inhibitor of PptT; Inhibition of indigoidine synthesis by holo-BpsA in LOPAC1280 counter-screen (holo-BpsA): inhibiting indigoidine synthesis
20 | O=c1c2ccccc2[se]n1-c1ccccc1 [ebselen] |  |  |  | Inhibition of indigoidine synthesis by holo-BpsA in LOPAC1280 counter-screen (holo-BpsA): inhibiting indigoidine synthesis
21 | Cc1ccc(C(=O)Nc2ccc(S(=O)(=O)O)c3cc(S(=O)(=O)O)cc(S(=O)(=O)O)c23)cc1NC(=O)c1cccc(NC(=O)Nc2cccc(C(=O)Nc3cc(C(=O)Nc4ccc(S(=O)(=O)O)c5cc(S(=O)(=O)O)cc(S(=O)(=O)O)c45)ccc3C)c2)c1 [suramin hexasodium] |  |  |  | Inhibition of indigoidine synthesis by holo-BpsA in LOPAC1280 counter-screen (holo-BpsA): inhibiting indigoidine synthesis
22 | Tyrphostin AG 808 | 34% |  |  | 
